Data on one compound can be found in article PMC12472512, “Design, Synthesis, In Silico Docking, Multitarget Bioevaluation and Molecular Dynamic Simulation of Novel Pyrazolo[3,4-d]Pyrimidinone Derivatives as Potential In Vitro and In Vivo Anti-Inflammatory Agents” (Pharmaceuticals, 2025).

Data set [1] has as its system carrageenan-induced paw edema. As to the kind of experiment: In vivo carrageenan-induced paw edema. As to conditions: 50 mg/kg oral, mice. On the technique in general: Carrageenan injected into the paw causes an acute inflammation.
The test system of data set [2] is gastric mucosa. The experiment in a line: Histopathological examination of stomach sections (H&E). As to conditions: stomach sections stained with H&E, 50 mg/kg.

Entries after “also recorded” stand apart in the source; their conditions may differ.

For `Cc1ccc(-c2cc(C(F)(F)F)nn2-c2ccc(S(N)(=O)=O)cc2)cc1` [Celecoxib, celecoxib, reference compound], the “Percentage of inhibition of carrageenan-induced paw edema” value in data set [1] (1 h) came out at 0.31%; in data set [1] (2 h), 44.88%; in data set [1] (3 h) it was 56.14%. Moreover, in data set [2], the “histological structure of the gastric mucosa” value was “normal gastric mucosal histology; also recorded: normal histological structure of the gastric mucosa”.
